Source: patent US4985547A, “External skin care preparation” (Kao Corporation, priority 1987, dated 1991)

How the values were obtained:
[1] = tested on: horny layer; experiment: Skin conductance (water content of horny layer) after two-week coating on cheeks; type: in vivo, women; design: key: conductance meter reading; ≤5 = severe roughness, ≥20 = no roughness; conditions: Invention Product 1: vaseline and compound 3:1 by weight; two weeks; 20° C., 40% humidity; 5 and smaller = severe roughness, 20 or greater = no substantial roughness
Excerpt: (§1) Compounds Ia1 -Ia18 prepared respectively in Referential Examples 1, 2 and 3 and following the procedures of these referential examples, compounds Ib1 -Ib5 prepared respectively in Referential Example 4 and following the procedure of the referential example, compounds Id1 -Id5 prepared respectively in Referential Example 5 and following the procedure of the referential example, compounds Ie1 -Ie4 prepared respectively in Referential Examples 6-9, and conventional compounds Ic1 -Ic13, Ie5 -Ie14 and II1 -II12 were used separately. Mixtures (Invention Products 1), each of which had been formulated by mixing vaseline and the compound (I or II) at a weight ratio of 3:1, and vaseline (Comparative Product 1) were evaluated in skin conductance and skin roughness by the following methods.
(§2) Chosen as volunteers in winter were 10 women of 20-50 years of old who had skin roughness on their both cheeks. Different external skin care preparations were coated separately on the left and right cheeks of each volunteer for two weeks. On the following day of the completion of the two-week coating test, tests were conducted with respect to the following properties.
After washing the face with warm water of 37° C., each volunteer was allowed to rest for 20 minutes in a room which was air-conditioned at 20° C. and 40% humidity. The water content of their horny layer was measured by a skin conductance meter (manufactured by IBS Company). A smaller conductance value indicates greater skin roughness. Conductance values of 5 and smaller indicate severe skin roughness. On the contrary, no substantial skin roughness is observed where this value is 20 or greater.

[2] = tested on: skin roughness; experiment: Score of skin roughness, visual ranking after two-week coating on cheeks; type: in vivo, women; conditions: average, 4 = severe
Excerpt: as §1, §2
Skin roughness was observed visually and ranked in accordance with the following standard. Each score was indicated by an average value.
Score Ranking of skin roughness
0 No skin roughness was observed.
1 Slight skin roughness was observed.
2 Skin roughness was observed.
3 Rather severe skin roughness was observed.
4 Severe skin roughness was observed.
Using separately the compounds used in Example 1, external skin care preparations (emulsified cosmetic preparations) of their corresponding compositions shown below in Table 2 were formulated. Their effects for the improvement of skin roughness were evaluated in the same manner as in Example 1.

[3] = Invention product 2: emulsified cosmetic, compound 1.0 wt. %, glyceryl ether 2.0 wt. %, 0 = none
[4] = Invention product 3: emulsified cosmetic, compound 1.0 wt. %, arginine monocetylphosphate 2.0 wt. %, 0 = none
[5] = Invention product 4: emulsified cosmetic, compound 1.0 wt. %, polyoxyethylene (20) sorbitan stearate 1.0 and sorbitan monostearate 1.0 wt. %, 0 = none
[6] = Invention Product 1: vaseline and compound 3:1 by weight, two weeks, 0 = no roughness

Row | Structure (SMILES) | Skin conductance [1] | Score of skin roughness [2, 3] | Score of skin roughness [2, 4] | Score of skin roughness [2, 5] | Score of skin roughness [2, 6]
1 | CCCCCCCCCCCCCCCCCCOCC(O)CN(CC(O)COCCCCCCCCCC)C(C)=O (stereo not shown) [Compound II11] | 12 | 0.4 | 0.8 | 1.2 | –
2 | CCCCCCCCCCCCCCCCOCC(O)CN(C(=O)CCCCCCCCCCCCCCC)C(CCSC)C(=O)O (stereo not shown) [Compound Ic9] | 16 | 0.5 | 0.7 | 1.0 | –
3 | CCCCCCCCCCCCCCCCCC(=O)N(CC(=O)O)CC(O)CCCCCCCCCCCCCCCC (stereo not shown) [Compound Ic4] | 13 | 0.8 | 1.0 | 1.3 | –
4 | CCCCCCCCCCCCCCCCCCOCC(O)CN(CCCCCCO)C(=O)CCCCCCCCCCCCCCCCC (stereo not shown) [Compound Ia9] | 20 | 0.2 | 0.4 | 0.9 | –
5 | CCCCCCCCCCCCCCCCCC(=O)N(CC(=O)O)CC(O)CCCCCCCCCCCCCCCC (stereo not shown) [Compound Ic3] | 11 | 1.0 | 1.3 | 1.6 | –
6 | CCCCCCCCCCCCCCCCCCOCC(O)CN(CC(=O)O)CC(O)COCCCCCCCCCCCCCCCCCC (stereo not shown) [Compound II8] | 20 | 0.2 | 0.4 | 0.8 | –
7 | CCCCCCCCCCOCC(O)CN(CCOCCO)C(=O)CCCCCCCCC (stereo not shown) [Compound Ib2] | 10 | 0.8 | 1.0 | 1.2 | –
8 | CCCCCCCCCCCCCCCCOCC(O)CN(C(=O)CCCCCCCCCCCCCCC)C(CO)C(=O)O (stereo not shown) [Compound Ic8] | 18 | 0.4 | 0.6 | 0.9 | –
9 | CCCCCCCCCCCCCCCCC(O)CN(CCO)C(=O)CCCCCCCCC (stereo not shown) [Compound Id2] | 18 | 0.3 | 0.5 | 0.8 | –
10 | CCCCCCCCCCCCCCCCOCC(O)CN(C(=O)CCCCCCCCCCCCCCC)C(CC(=O)O)C(=O)O (stereo not shown) [Compound Ic10] | 15 | 0.6 | 0.8 | 1.1 | –
11 | CCCCCCCCCCCCCCCCCC(=O)N(CC(=O)O)CC(O)COCCCCCCCCCCCCCC (stereo not shown) [Compound Ic2] | 15 | 0.6 | 0.8 | 1.1 | –
12 | CCCCCCCCCCCCCCCCCCOCC(O)CN(CCCO)C(=O)CCCCCCCCC (stereo not shown) [Compound Ia5] | 17 | 0.3 | 0.5 | 1.0 | –
13 | CCCCCCCCCCCCCCCCCCOCC(O)CN(CC(O)CO)C(=O)CCCCCCCCC (stereo not shown) [Compound Ia12] | 18 | 0.3 | 0.5 | 0.9 | –
14 | CCCCCCCCCCCCCCCCCCOCC(O)CN(CCCCCCO)C(=O)CCCCCCCCCC (stereo not shown) [Compound Ia8] | 13 | 0.5 | 0.7 | 1.1 | –
15 | CCCCCCCCCCCCCCCCOCC(O)CN(CCO[C@]1(C(=O)O)C[C@H](O)[C@@H](NC(C)=O)[C@H]([C@H](O)[C@H](O)CO)O1)C(=O)CCCCCCCCCCCCCCC (stereo partly drawn) [Compound Ie4, N-(3-hexadecyloxy-2-hydroxypropyl)-N-[2-O-(5-acetamido-3,5-dideoxy-α-D-glycero-β-D-galacto-2-nonuropyranosyl)ethyl]hexadecanamide] | 33 | 0.2 | 0.2 | 0.4 | 0.5
16 | CCCCCCCCCCCCCCCCCC(=O)N(CCCCCCO)CC(O)COCCCCCCCCCC (stereo not shown) [Compound Ia7] | 11 | 0.6 | 0.9 | 1.2 | –
17 | CCCCCCCCCCCCCCCCOCC(O)CN(CCOCCO)C(=O)CCCCCCCCCCCCCCC (stereo not shown) [Compound Ib1, N-(3-hexadecyloxy-2-hydroxypropyl)-N-2-hydroxyethoxyethylhexadecanamide] | 20 | 0.1 | 0.2 | 0.7 | –
18 | CCCCCCCCCCCCCCCCCC(=O)N(CC(=O)O)CC(O)COCCCCCCCCCCCCCC (stereo not shown) [Compound Ic1] | 14 | 0.7 | 0.9 | 1.2 | –
19 | CCCCCCCCCCCCCCCCCCOCC(O)CN(C(=O)CCCCCCCCCCCCCCCCC)C(C)CO (stereo not shown) [Compound Ia16] | 15 | 0.4 | 0.6 | 0.9 | –
20 | CCCCCCCC/C=C\CCCCCCCC(=O)N(CCO)CC(O)CCCCCCCCCCCCCCCC (stereo not shown) [Compound Id5] | 25 | 0.1 | 0.3 | 0.6 | –
21 | CCCCCCCCCCC(O)CN(CCO)C(=O)CCCCCCCCC (stereo not shown) [Compound Id3] | 13 | 0.5 | 0.8 | 1.1 | –
22 | CCCCCCCCCCOCC(O)CN(CC(=O)O)CC(O)COCCCCCCCCCC (stereo not shown) [Compound II6] | 7 | 0.8 | 1.0 | 1.2 | –
23 | CCCCCCCCCCCCCCCCCC(=O)N(CCO)CC(O)CCCCCCCCCCCCCC (stereo not shown) [Compound Id1, N-(2-hydroxyethyl)-N-2-hydroxyhexa-decyloctadecanamide] | 21 | 0.2 | 0.4 | 0.7 | 1.0
24 | CCCCCCCCCCCCCCCCCCOCC(O)CN(CCCO)C(=O)CCCCCCCCCCCCCCCCC (stereo not shown) [Compound Ia6] | 23 | 0.1 | 0.3 | 0.7 | –
25 | CCCCCCCCCCCCCCCCCC(=O)N(CCCO)CC(O)COCCCCCCCCCC (stereo not shown) [Compound Ia4] | 13 | 0.5 | 0.7 | 1.1 | –
26 | CCCCCCCCCCCCCCCCCC(=O)N(CC(O)CO)CC(O)COCCCCCCCCCC (stereo not shown) [Compound Ia11] | 19 | 0.3 | 0.5 | 0.8 | –
27 | CCCCCCCCCCCCCCCCOCC(O)CN(CCOP(=O)([O-])OCC[N+](C)(C)C)C(=O)CCCCCCCCCCCCCCC (stereo not shown) [Compound Ie7] | – | 0.5 | 0.7 | 1.0 | –
